# According to ChEMBL document CHEMBL1201862, “PubChem BioAssay data set” (2004):
#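 Assay format: 96-well plates, 48-hour exposure. At the GI50, growth is halved.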 The source made the active and inactive calls. Cut-off read from the data, not from the text of the source: active = GI50 up to about 1.1 µM and inactive = higher.
# Experiments:
# Test in all cases: inhibition of tumour cell growth, NCI panel, 48 h
# U-251 = system: U-251
# T47D = system: T47D
# SF-539 = system: SF-539
# KM12 = system: KM12
# OVCAR-4 = system: OVCAR-4
# HCT-116 = system: HCT-116
# SK-MEL-5 = system: SK-MEL-5
# MDA-MB-231 = system: MDA-MB-231
# SK-OV-3 = system: SK-OV-3
# MCF7 = system: MCF7
# Malme-3M = system: Malme-3M
# MDA-N = system: MDA-N
# SN12C = system: SN12C
# IGROV-1 = system: IGROV-1
# RPMI-8226 = system: RPMI-8226
# HOP-62 = system: HOP-62
# BT-549 = system: BT-549
# SNB-75 = system: SNB-75
# COLO 205 = system: COLO 205
# DU-145 = system: DU-145
SMILES,GI50 (U-251),GI50 (T47D),GI50 (SF-539),GI50 (KM12),GI50 (OVCAR-4),GI50 (HCT-116),GI50 (SK-MEL-5),GI50 (MDA-MB-231),GI50 (SK-OV-3),GI50 (MCF7),GI50 (Malme-3M),GI50 (MDA-N),GI50 (SN12C),GI50 (IGROV-1),GI50 (RPMI-8226),GI50 (HOP-62),GI50 (BT-549),GI50 (SNB-75),GI50 (COLO 205),GI50 (DU-145)
CC(=O)NNc1nc(C)c(C(/C=C/c2ccc3c(c2)OCO3)=N/NC(=O)c2ccncc2)s1,> 100 µM (inactive),> 100 µM (inactive),> 100 µM (inactive),> 100 µM (inactive),> 100 µM (inactive),> 100 µM (inactive),> 100 µM (inactive),> 100 µM (inactive),> 100 µM (inactive),> 100 µM (inactive),> 100 µM (inactive),> 100 µM (inactive),> 100 µM (inactive),> 100 µM (inactive),> 100 µM (inactive),> 100 µM (inactive),> 100 µM (inactive),> 100 µM (inactive),,
Cc1cc(-c2nc3ccccc3s2)ccc1NS(=O)(=O)O,,,0.0508 µM (active),> 4.65 µM (inactive),,> 4.65 µM (inactive),> 100 µM (inactive),> 24.1 µM (inactive),> 33.5 µM (inactive),< 0.0382 µM (active),> 6.56 µM (inactive),> 6.04 µM (inactive),> 5.92 µM (inactive),1.11 µM (active),> 4.65 µM (inactive),,0.544 µM (active),> 67 µM (inactive),> 4.65 µM (inactive),> 22.2 µM (inactive)
O=[N+]([O-])c1cc(Cl)ccc1S(=O)(=O)c1cc(Cl)cc2c1NCCC2,,,> 100 µM (inactive),52.7 µM (inactive),> 100 µM (inactive),63.1 µM (inactive),21.3 µM (inactive),> 100 µM (inactive),> 100 µM (inactive),37.8 µM (inactive),> 100 µM (inactive),39.3 µM (inactive),> 100 µM (inactive),29.1 µM (inactive),> 100 µM (inactive),69.2 µM (inactive),56.9 µM (inactive),18.4 µM (inactive),99.8 µM (inactive),> 100 µM (inactive)
CC(=O)O[C@@H]1O[Si](C(C)(C)C)(C(C)(C)C)[C@H](C)[C@H]1C,43.7 µM (inactive),> 100 µM (inactive),> 100 µM (inactive),30.5 µM (inactive),> 100 µM (inactive),29.9 µM (inactive),26.1 µM (inactive),> 100 µM (inactive),> 100 µM (inactive),19.1 µM (inactive),7.91 µM (inactive),> 100 µM (inactive),> 100 µM (inactive),21.1 µM (inactive),45.1 µM (inactive),> 100 µM (inactive),> 100 µM (inactive),6.62 µM (inactive),> 100 µM (inactive),
CCOC(=O)C(=Cc1[nH]c2ccccc2c1-c1c[nH]c2ccccc12)C(=O)OCC,11.7 µM (inactive),,18.5 µM (inactive),4.69 µM (inactive),6.76 µM (inactive),10.8 µM (inactive),15.5 µM (inactive),16.9 µM (inactive),20.3 µM (inactive),4.71 µM (inactive),18.7 µM (inactive),13.3 µM (inactive),15 µM (inactive),11.1 µM (inactive),2.84 µM (inactive),14.2 µM (inactive),14.7 µM (inactive),12.9 µM (inactive),16.2 µM (inactive),14.1 µM (inactive)
CN(C)C(=O)Oc1ccc(C(=S)Nc2ccccc2)cc1,> 100 µM (inactive),53.6 µM (inactive),> 100 µM (inactive),49.7 µM (inactive),32.1 µM (inactive),> 100 µM (inactive),24 µM (inactive),,> 100 µM (inactive),76 µM (inactive),89.3 µM (inactive),37.4 µM (inactive),,34 µM (inactive),64.1 µM (inactive),> 100 µM (inactive),32 µM (inactive),,65.2 µM (inactive),> 100 µM (inactive)
